# How the values were obtained:
# β-glucuronidase = target: T1, β-glucuronidase (Homo sapiens, UniProt P08236); experiment: Enzyme release assay with β-glucuronidase (SN38 by HPLC); format: biochemical; conditions: for release of SN38 triggered by β-glucuronidase: β-glucuronidase 300 U, 37 °C, within 45 min
# T1 sequence (P08236 23-651): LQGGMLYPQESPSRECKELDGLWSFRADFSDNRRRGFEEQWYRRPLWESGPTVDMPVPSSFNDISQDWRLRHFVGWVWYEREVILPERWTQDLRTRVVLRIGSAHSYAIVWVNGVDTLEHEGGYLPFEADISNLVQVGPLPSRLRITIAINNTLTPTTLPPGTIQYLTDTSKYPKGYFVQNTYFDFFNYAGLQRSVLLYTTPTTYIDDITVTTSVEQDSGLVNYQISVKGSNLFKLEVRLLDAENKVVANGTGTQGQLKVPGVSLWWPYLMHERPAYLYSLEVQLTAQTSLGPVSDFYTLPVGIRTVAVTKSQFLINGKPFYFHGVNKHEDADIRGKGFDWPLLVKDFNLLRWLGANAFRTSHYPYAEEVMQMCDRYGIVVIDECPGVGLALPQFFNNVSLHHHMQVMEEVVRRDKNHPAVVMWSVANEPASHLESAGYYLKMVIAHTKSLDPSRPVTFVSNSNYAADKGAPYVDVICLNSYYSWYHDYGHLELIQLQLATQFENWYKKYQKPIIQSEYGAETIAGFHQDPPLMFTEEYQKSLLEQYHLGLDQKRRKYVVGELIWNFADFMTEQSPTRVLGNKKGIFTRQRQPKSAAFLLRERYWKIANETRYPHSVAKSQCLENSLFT
# Method: Compound (J1-1) solution (100 µM, pH 7.4 or pH 5.5) prepared in Example 1 of the present invention was mixed with β-glucuronidase (300 U) and incubated in a shaker at 37 °C. Corresponding samples (n=3) were taken at 1 min, 2 min, 5 min, 10 min, 20 min, 45 min, 60 min, and 90 min, precipitated with cold acetonitrile, centrifuged at 4 °C for 15 min, and the supernatant was collected. The content of SN38 was determined by HPLC.
# [1] = Stability test in PBS and mouse plasma (HPLC); format: in vitro ADME
# Method: The PBS solution (1 mM, pH 7.4) of Compound (J1-1) prepared in Example 1 of the present invention was incubated at 37 °C. Corresponding samples (n=3) were taken on Day 1, Day 2, Day 3, Day 5, and Day 7, and the contents of (J1-1) and SN38 were determined by HPLC.
# Mouse plasma stability: 40 µL of the PBS solution (1 mM, pH 7.4) of Compound (J1-1) prepared in Example 1 of the present invention was mixed with 360 µL of mouse plasma and incubated in a shaker at 37 °C. Corresponding samples (n=3) were taken on Day 1, Day 2, Day 3, Day 5, and Day 7, precipitated with cold acetonitrile, centrifuged at 4 °C for 30 min, and the supernatant was collected. The content of SN38 was determined by HPLC.
# [2] = test system: HCT116, A549, MCF-7, HepG2, and 4T1 cells; experiment: In vitro drug cytotoxicity assay (MTT) with or without β-glucuronidase; format: cell-based; conditions: 72 h
# Method: The in vitro cytotoxicity of Compound (J1-1) prepared in Example 1 of the present invention against HCT116, A549, MCF-7, HepG2, and 4T1 cells, as well as that in the presence of β-glucuronidase, was determined by MTT assay. A total of 200 µL of culture medium containing 4000 cells was seeded into each well of a 96-well plate. After incubation for adherence for 24 h in an incubator (37 °C, 5% CO2), the culture medium was removed, and 200 µL of drug solutions at various concentrations with or without β-glucuronidase supplementation was added, followed by incubation for 72 h. The medium was removed, 100 µL of MTT solution (0.5 mg/mL) was added to each well, and the plate was incubated for 3 h. Subsequently, 100 µL of triple solution was added to each well, and the plate was incubated for 12 h. The absorbance (OD) at 570 nm was measured using a microplate reader. Cell viability was calculated according to the following formula: Cell viability % = (ODsample −ODblank)/(ODcontrol −ODblank) × 100% [formula]
# ODsampleis the absorbance of the drug-treated group, ODblank is the absorbance of complete medium alone, ODcontrol is the absorbance of the cell-seeded group without drug treatment.
# [3] = test system: HCT116 cell xenograft tumor model; experiment: Antitumor effect in HCT116 xenograft nude mice; format: in vivo, BALB/c nude mice
# Method: Female BALB/c nude mice (4 weeks old) were selected and acclimated for three days in a barrier facility. HCT116 cells (5×10^6) were subcutaneously inoculated into the right flank of nude mice. When tumors grew to 80-100 mm^3, tumor-bearing nude mice were randomly divided into four groups with six mice per group. Normal saline (blank group), 30 mg/kg of (J1-1), and 60 mg/kg of Compound (J1-1) prepared in Example 1 of the present invention (supplementary treatment group) were administered intravenously via the tail vein, respectively. Administration was performed twice a week for a total of five times. Body weight and tumor volume of nude mice were observed and recorded.
smiles,measurement,setting,value
CCc1c2c(nc3ccc(OC(=O)N(C)c4cc([N+](=O)[O-])ccc4OCc4ccc(O[C@@H]5O[C@H](C(=O)O)[C@@H](O)[C@H](O)[C@H]5O)c(NC(=O)CCNC(=O)CCCCCN5C(=O)C=CC5=O)c4)cc13)-c1cc3c(c(=O)n1C2)COC(=O)[C@]3(O)CC [Compound J1-1],release of the active drug,"β-glucuronidase; conditions simulating the tumor microenvironment, summary statement",can rapidly release the active drug
same,release of SN38 triggered by β-glucuronidase,"β-glucuronidase; pH 5.5, 100 µM",100%
same,release of SN38 triggered by β-glucuronidase,"β-glucuronidase; pH 7.4, 100 µM",100%
same,release of SN38,"[1]; mouse plasma with PBS at pH 7.4, 37 °C, within seven days",less than 2%
same,in vitro and in vivo stability,[1]; summary statement,excellent
same,in vitro cytotoxicity in the presence of β-glucuronidase,[2]; with β-glucuronidase,"could release the active drug upon β-glucuronidase triggering, thereby achieving the purpose of killing tumor cells"
same,in vitro cytotoxicity,[2]; without β-glucuronidase,low cytotoxicity
same,tumor volume,"[3]; 30 mg/kg and 60 mg/kg intravenously via tail vein, twice a week, five administrations",significantly reduced or even eliminated
same,survival period,"[3]; HCT116 xenograft mouse model, summary statement",significantly prolonged
